Laboratory results published in PubChem BioAssay (NCI).
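Assay format: 96-well plates, 48-hour exposure. At the TGI there is no net growth.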

Columns and labels:
Experiment in all cases: NCI tumour cell line growth inhibition, 48 h
[1] = system: PC-3 prostate
[2] = system: EKVX NSCLC
[3] = system: HCT-116 colon
[4] = system: SK-MEL-2 melanoma
[5] = system: OVCAR-5 ovarian
[6] = system: SNB-19 CNS
[7] = system: A498 renal
[8] = system: BT-549 breast
[9] = system: T-47D breast
[10] = system: MDA-N
[11] = system: HCC-2998 colon
[12] = system: NCI-H460 lung
[13] = system: RXF 393 renal
[14] = system: MCF7 breast
[15] = system: TK-10 renal
[16] = system: SW-620 colon
[17] = system: 786-0 renal
[18] = system: A549 NSCLC
[19] = system: UACC-257 melanoma
[20] = system: M14 melanoma
[21] = system: SR leukemia
[22] = system: HT29 colon
[23] = system: MDA-MB-231 breast
[24] = system: KM12 colon
[25] = system: K-562 leukemia
[26] = system: SK-MEL-28 melanoma
[27] = system: SK-MEL-5 melanoma
[28] = system: IGROV1 ovarian
[29] = system: HL-60(TB) leukemia
[30] = system: U251 CNS
[31] = system: NCI-H23 lung
[32] = system: ACHN renal
[33] = system: MOLT-4 leukemia
[34] = system: HS 578T breast
[35] = system: HOP-62 NSCLC
[36] = system: NCI-H226 lung
[37] = system: HOP-92 NSCLC
[38] = system: RPMI-8226 leukemia
[39] = system: OVCAR-8 ovarian
[40] = system: MALME-3M melanoma
[41] = system: SNB-75 CNS
[42] = system: COLO 205 colon
[43] = system: HCT-15 colon
[44] = system: UO-31 renal
[45] = system: MDA-MB-435
[46] = system: OVCAR-4 ovarian
[47] = system: NCI-H522 lung
[48] = system: LOX IMVI melanoma
[49] = system: DU-145 prostate
[50] = system: CAKI-1 renal
[51] = system: OVCAR-3 ovarian
[52] = system: SF-539 CNS
[53] = system: SK-OV-3 ovarian
[54] = system: UACC-62 melanoma
[55] = system: SF-268 CNS
[56] = system: SF-295 CNS
[57] = system: SN12C renal
[58] = system: NCI/ADR-RES ovarian
[59] = system: CCRF-CEM leukemia

c1ccc(N=C2C(=Nc3ccccc3)N(C3CCCCC3)C(=NC3CCCCC3)N2c2ccccc2)cc1
TGI [1]: > 100 µM
TGI [2]: > 100 µM
TGI [3]: > 100 µM
TGI [4]: > 100 µM
TGI [5]: > 100 µM
TGI [6]: > 100 µM
TGI [7]: > 100 µM
TGI [8]: > 100 µM
TGI [9]: > 100 µM
TGI [10]: > 100 µM
TGI [11]: > 100 µM
TGI [12]: > 100 µM
TGI [13]: > 100 µM
TGI [14]: > 100 µM
TGI [15]: > 100 µM
TGI [16]: > 100 µM
TGI [17]: > 100 µM
TGI [18]: > 100 µM
TGI [19]: > 100 µM
TGI [20]: > 100 µM
TGI [21]: > 100 µM
TGI [22]: > 100 µM
TGI [23]: > 100 µM
TGI [24]: > 100 µM
TGI [25]: > 100 µM
TGI [26]: > 100 µM
TGI [27]: > 100 µM
TGI [28]: > 100 µM
TGI [29]: > 100 µM
TGI [30]: > 100 µM
TGI [31]: > 100 µM
TGI [32]: > 100 µM
TGI [33]: > 100 µM
TGI [34]: > 100 µM
TGI [35]: > 100 µM
TGI [36]: > 100 µM
TGI [37]: > 100 µM
TGI [38]: > 100 µM
TGI [39]: > 100 µM
TGI [40]: > 100 µM
TGI [41]: > 100 µM
TGI [42]: > 100 µM
TGI [43]: > 100 µM
TGI [44]: > 100 µM

COC(=O)CCN1CCN(CCO)CC1C (stereo not given)
TGI [1]: > 10 µM
TGI [2]: > 10 µM
TGI [3]: > 10 µM
TGI [4]: > 10 µM
TGI [45]: > 10 µM
TGI [6]: > 10 µM
TGI [7]: > 10 µM
TGI [9]: > 10 µM
TGI [10]: > 10 µM
TGI [46]: > 10 µM
TGI [47]: > 10 µM
TGI [11]: > 10 µM
TGI [12]: > 10 µM
TGI [48]: > 10 µM
TGI [13]: > 10 µM
TGI [49]: > 10 µM
TGI [14]: > 10 µM
TGI [50]: > 10 µM
TGI [15]: > 10 µM
TGI [16]: > 10 µM
TGI [17]: > 10 µM
TGI [18]: > 10 µM
TGI [19]: > 10 µM
TGI [20]: > 10 µM
TGI [21]: > 10 µM
TGI [22]: > 10 µM
TGI [23]: > 10 µM
TGI [24]: > 10 µM
TGI [25]: > 10 µM
TGI [26]: > 10 µM
TGI [27]: > 10 µM
TGI [51]: > 10 µM
TGI [52]: > 10 µM
TGI [28]: > 10 µM
TGI [53]: > 10 µM
TGI [29]: > 10 µM
TGI [54]: > 10 µM
TGI [30]: > 10 µM
TGI [31]: > 10 µM
TGI [55]: > 10 µM
TGI [32]: > 10 µM
TGI [56]: > 10 µM
TGI [57]: > 10 µM
TGI [33]: > 10 µM
TGI [34]: > 10 µM
TGI [35]: > 10 µM
TGI [36]: > 10 µM
TGI [38]: > 10 µM
TGI [58]: > 10 µM
TGI [59]: > 10 µM
TGI [39]: > 10 µM
TGI [40]: > 10 µM
TGI [41]: > 10 µM
TGI [42]: > 10 µM
TGI [43]: > 10 µM
TGI [44]: > 10 µM
